The results in this text go back to patent US5861274A, “Nucleic acids encoding peroxisome proliferator-activated receptor” (The Salk Institute for Biological Studies, priority 1995, dated 1999).

Entries after “also recorded” stand apart in the source; their conditions may differ. Some results are limits rather than exact numbers.

One series deals with T1, PPARδ (Mus musculus, UniProt P35396).
T1 sequence (P35396 1-440): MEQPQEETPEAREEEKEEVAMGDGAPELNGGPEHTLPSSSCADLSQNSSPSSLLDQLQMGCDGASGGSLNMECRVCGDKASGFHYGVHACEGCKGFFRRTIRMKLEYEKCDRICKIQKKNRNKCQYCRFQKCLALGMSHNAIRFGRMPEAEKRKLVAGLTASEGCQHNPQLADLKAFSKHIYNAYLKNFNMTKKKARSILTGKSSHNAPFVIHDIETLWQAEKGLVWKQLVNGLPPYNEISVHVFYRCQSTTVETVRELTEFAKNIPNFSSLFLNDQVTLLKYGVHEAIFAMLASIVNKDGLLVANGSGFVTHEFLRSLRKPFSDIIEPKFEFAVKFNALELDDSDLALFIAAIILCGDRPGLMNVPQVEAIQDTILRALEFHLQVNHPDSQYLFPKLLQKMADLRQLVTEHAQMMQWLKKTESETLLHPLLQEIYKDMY
Briefly: Cotransfection assay, PPRE3-TK-LUC reporter with CMX-PPARδ. The note with it: CV-1 cells; for activation of PPARδ (reporter expression), in words: 5 μM Wy 14,643, 30 μM linoleic acid or 30 μM LY-171883; for rank order of efficacy of activation, PPARδ: FIG. 4, 5 μM Wy 14,643, 30 μM linoleic acid, 30 μM LY-171883. Type of series: cell-based. The text has this:
(§1) The mammalian expression vectors pCMX-PPARα, pCMX-PPARγ and pCMX-PPARδ were constructed by inserting the cDNA inserts of PPARα, PPARγ, and PPARδ into pCMX as previously described by Umesono et al., in Cell 65:1255-1266 (1991)). Construction of the reporter PPRE3 -TK-LUC has also been previously described by Kliewer et al., (1992) supra. Cotransfection assays in CV-1 cells were done in 48 well plates using N-[1-(2,3-dioleoyloxy)-propyl[N,N,N-trimethylammonium methyl sulfate (DOTAP) according to the manufacturer's instructions (Boehringer Mannheim). Transfections contained […] of receptor expression plasmid vector, 20 ng of the reporter PPRE3 -TK-LUC, 60 ng of pCMX-βGAL (β-galactosidase) as an internal control, and 210 ng of carrier plasmid pGEM. Cells were incubated in the presence of DOTAP for 8 hours, washed, and incubated in the presence of peroxisome proliferators or fatty acids for 36 hours. Cell extracts were prepared and assayed for luciferase and β-galactosidase activity as previously described (Umesono, supra). All experimental points were done in triplicate.

The target in the next series is T2, PPARα (Mus musculus, UniProt P23204).
T2 sequence (P23204 1-468): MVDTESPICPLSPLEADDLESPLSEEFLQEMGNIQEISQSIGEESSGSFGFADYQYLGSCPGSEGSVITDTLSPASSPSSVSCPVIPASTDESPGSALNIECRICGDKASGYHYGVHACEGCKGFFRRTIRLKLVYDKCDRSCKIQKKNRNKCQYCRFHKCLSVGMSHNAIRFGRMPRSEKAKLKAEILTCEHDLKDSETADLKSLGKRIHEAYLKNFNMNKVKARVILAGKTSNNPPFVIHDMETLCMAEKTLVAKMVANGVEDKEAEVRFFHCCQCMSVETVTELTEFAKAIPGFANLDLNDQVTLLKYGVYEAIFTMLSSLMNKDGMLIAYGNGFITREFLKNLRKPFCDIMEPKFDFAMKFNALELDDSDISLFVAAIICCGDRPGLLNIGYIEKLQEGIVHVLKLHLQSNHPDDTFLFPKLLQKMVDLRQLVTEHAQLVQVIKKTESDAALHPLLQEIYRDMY
As to the kind of experiment: Cotransfection assay, PPRE3-TK-LUC reporter with CMX-PPARα. Type of series: cell-based. The conditions noted are these: CV-1 cells; for rank order of efficacy of activation, PPARα: FIG. 4, 5 μM Wy 14,643, 30 μM linoleic acid, 30 μM LY-171883.
Excerpt: as §1

The next series addresses T3, PPARγ (Mus musculus, UniProt P37238).
T3 sequence (P37238 31-475 N383S): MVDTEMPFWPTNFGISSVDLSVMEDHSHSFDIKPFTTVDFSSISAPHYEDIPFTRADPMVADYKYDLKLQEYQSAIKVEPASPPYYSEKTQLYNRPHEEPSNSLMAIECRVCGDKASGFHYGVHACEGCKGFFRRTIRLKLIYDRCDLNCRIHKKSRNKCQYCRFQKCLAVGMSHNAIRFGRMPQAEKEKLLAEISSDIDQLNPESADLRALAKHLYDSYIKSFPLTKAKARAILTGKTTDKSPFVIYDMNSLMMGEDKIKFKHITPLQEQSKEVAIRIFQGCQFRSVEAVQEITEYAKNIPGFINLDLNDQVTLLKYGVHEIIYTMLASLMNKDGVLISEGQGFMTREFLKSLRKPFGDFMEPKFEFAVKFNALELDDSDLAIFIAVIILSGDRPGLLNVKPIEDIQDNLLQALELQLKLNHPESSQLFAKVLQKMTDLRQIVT
As to the kind of experiment: Cotransfection assay, PPRE3-TK-LUC reporter with CMX-PPARγ. It is filed as cell-based. The conditions noted are these: CV-1 cells; for activation of PPARγ (reporter expression), in words: 5 μM Wy 14,643, 30 μM linoleic acid or 30 μM LY-171883; for rank order of efficacy of activation, PPARγ: FIG. 4, 5 μM Wy 14,643, 30 μM linoleic acid, 30 μM LY-171883.
Excerpt: Luciferase activities are presented as the fold activation achieved in compound-treated versus mock-treated cells. Similar results were obtained in triplicate in three independent experiments.
as §1

In a further series the test system is PPARalpha (Mus musculus). Briefly: cell_activity. The conditions noted are these: activation by 5 uM Wy 14,643 in CV-1 cells.

For the molecule `CCCc1c(OCCCCc2nnn[nH]2)ccc(C(C)=O)c1O` [LY-171883], at PPARδ, the “activation of PPARδ (reporter expression), in words” value was “strong activators”; the “rank order of efficacy of activation, PPARδ” value was “linoleic acid>LY-171883 and Wy 14,643”. Further, the “rank order of efficacy of activation, PPARα” value (“rank order of efficacy … PPARα” for short) at PPARα is listed as “Wy 14,643>LY-171883>linoleic acid”. Also, on PPARγ, the “activation of PPARγ (reporter expression), in words” value (“activation of PPARγ” for short) is reported as “significant activation; also recorded: most efficiently activated” and the “rank order of efficacy of activation, PPARγ” value (“rank order of efficacy … PPARγ” below) is given as “LY 171883>linoleic acid>Wy 14,643”.
Turning to `Cc1cccc(Nc2cc(Cl)nc(SCC(=O)O)n2)c1C` [Wy 14,643], the “activation of PPARα (reporter expression), in words” value at PPARα (5 μM Wy 14,643, 30 μM linoleic acid or 30 μM LY-171883) is given as “most efficiently activated”. Also, the “rank order of efficacy … PPARα” value at PPARα was “Wy 14,643>LY-171883>linoleic acid”. Besides, on PPARγ, the “activation of PPARγ” value is listed as “no activation; also recorded: fail 30 to respond; also recorded: fails to activate” and the “rank order of efficacy … PPARγ” value is “LY 171883>linoleic acid>Wy 14,643”.
With `CCCCC/C=C\C/C=C\CCCCCCCC(=O)O` [linoleic acid], at PPARδ, the “activation of PPARδ (reporter expression), in words” value is “strong activators; also recorded: most efficiently activated”; the “rank order of efficacy of activation, PPARδ” value is “linoleic acid>LY-171883 and Wy 14,643”. Further, the “rank order of efficacy … PPARα” value at PPARα is “Wy 14,643>LY-171883>linoleic acid”. For the same molecule, on PPARγ, the “activation of PPARγ” value was “no activation” and the “rank order of efficacy … PPARγ” value is on record as “LY 171883>linoleic acid>Wy 14,643”.
Consider PPRE3-TK-LUC reporter, for which the activity in the series with PPARalpha (Mus musculus) is more than 100 fold.
